{"source": "patent US20030198661A1", "about": "“Antioxidant compositions and methods for companion animals” (MARS INCORPORATED, priority 2000, published 2003)", "key": {"rabies": {"tested_on": "rabies", "type": "in vivo", "details": "healthy adult cats; once daily oral supplement at Table 13 levels"}, "[1]": {"details": "cats; oral α-tocopherol acetate supplements"}, "[2]": {"test": "Plasma vitamin C in dogs after dietary vitamin C", "type": "in vivo", "method": "Samples are prepared under subdued lighting at all times.\nA preferred minimal dose of vitamin C to achieve an increase in plasma in cats is 20 mg/400 kcal. A preferred minimal dose of vitamin C tested to achieve an increase in plasma in dogs was 27 mg/400 kcal."}, "[3]": {"details": "in vivo"}, "[4]": {"test": "Plasma α-tocopherol response to supplementation in healthy dogs (Example 10)", "type": "in vivo", "text": "Vitamin E is the collective name for 8 naturally occurring molecules, 4 tocopherols and 4 tocotrienols. The biological activity of the various forms roughly correlates with their antioxidant activities with the order of relative peroxyl scavenging reactivities of α>β>γ>δ-tocopherol. […] The minimum requirement for vitamin E in adult dogs has been established as 2.5 IU α-tocopherol/400 kcal diet (Nutrient Requirements of Dogs (1985) National Research Council (U.S.) National Academy Press Washington D.C. ISBN:0-309-03496-5). Prepared petfoods typically contain up to 10 times this amount but across the normal ranges of vitamin E in petfoods, plasma concentrations tend to be constant. In a study to evaluate the impact of supplementary vitamin E on the plasma response, 6 adult dogs, maintained on a nutritionally complete (see diet reference section) canned dog food (vitamin E content 8.2 mg/400 kcal (8.21U/400 kcal), were offered a supplement equivalent to 100 IU vitamin E/day for 6 weeks. A control group of 6 dogs was maintained under the same conditions but received no dietary supplement. Plasma α-tocopherol was monitored during, and for 4 weeks following, the supplementation period."}, "[5]": {"details": "dog, in vivo"}}}
{"smiles": "CC1=C(/C=C/C(C)=C/C=C/C(C)=C/C=C/C=C(C)/C=C/C=C(C)/C=C/C2=C(C)CCCC2(C)C)C(C)(C)CCC1", "note": "[beta-carotene]", "values": [{"measurement": "anti-rabies antibody response to vaccination versus unsupplemented controls", "setting": "rabies", "result": "greater"}]}
{"smiles": "CC(=O)Oc1c(C)c(C)c2c(c1C)CCC(C)(CCC[C@H](C)CCC[C@H](C)CCCC(C)C)O2", "note": "(stereo partly drawn) [Vitamin E, alpha-tocopherol acetate]", "values": [{"measurement": "anti-rabies antibody response to vaccination versus unsupplemented controls", "setting": "rabies", "result": "greater"}, {"measurement": "plasma vitamin E levels following oral supplementation", "setting": "[1]", "result": "significantly increased"}]}
{"smiles": "O=C1O[C@H]([C@@H](O)CO)C(O)=C1O", "note": "[Vitamin C, L-ascorbic acid]", "values": [{"measurement": "minimal dose of vitamin C tested to achieve an increase in plasma", "setting": "[2]", "result": 27, "unit": "mg/400 kcal"}, {"measurement": "anti-rabies antibody response to vaccination versus unsupplemented controls", "setting": "rabies", "result": "greater"}, {"measurement": "plasma vitamin C levels versus baseline within 7 days", "setting": "[3]", "result": "significantly increased"}]}
{"smiles": "NCCS(=O)(=O)O", "note": "[taurine, aminoethylsulfonic acid]", "values": [{"measurement": "anti-rabies antibody response to vaccination versus unsupplemented controls", "setting": "rabies", "result": "greater"}]}
{"smiles": "CC(C)=CCC/C(C)=C/C=C/C(C)=C/C=C/C(C)=C/C=C/C=C(C)/C=C/C=C(C)/C=C/C=C(\\C)CCC=C(C)C", "note": "[lycopene]", "values": [{"measurement": "anti-rabies antibody response to vaccination versus unsupplemented controls", "setting": "rabies", "result": "particularly marked"}]}
{"smiles": "Cc1c(C)c2c(c(C)c1O)CC[C@@](C)(CCC[C@H](C)CCC[C@H](C)CCCC(C)C)O2", "note": "[α-tocopherol]", "values": [{"measurement": "Plasma α-tocopherol", "setting": "[4]; Test group (100 IU vitamin E/day for 6 weeks), Baseline", "result": 15.9}, {"measurement": "Plasma α-tocopherol", "setting": "[4]; Test group (100 IU vitamin E/day), Day 28", "result": 32.6}, {"measurement": "Plasma α-tocopherol", "setting": "[4]; Test group (100 IU vitamin E/day), Day 42", "result": 35.4}, {"measurement": "Plasma α-tocopherol", "setting": "[4]; Test group, Day 70 (day 28 post-supplementation)", "result": "28.2 ± 6.87"}, {"measurement": "individual plasma α-tocopherol levels, median", "setting": "[5]", "result": 21.1, "unit": "mg/L"}]}
